Test results as given in ChEMBL document CHEMBL1201862, “PubChem BioAssay data set” (2004).
The source made the active and inactive calls.

Assays:
[1] = test system: HEK293; test: EBV LMP1 TES2 canonical NF-kB signalling blockers – cell-based, HEK293, luciferase, cherry-pick, dose response (AID 588343); assay type: functional; settings: Homo sapiens
[2] = reduction of Shn3 3'UTR-driven luciferase in osteoblasts – cell-based, Clone20 osteoblasts, firefly luciferase, cherry-picked, dose response (AID 624132); assay type: functional;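 further: firefly luciferase luminescence from reporter carrying the Shn3 3'UTR in osteoblasts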
[3] = loss of viability in HepG2 cells – cell-based, CellTiter-Glo, cherry-picked, cytotoxicity control for Shn3 inhibitor project, dose response (AID 624134); assay type: functional
[4] = non-specific 3'UTR reporter inhibition in Clone20-Shn3RL – cell-based, Renilla luciferase, cherry-picked, counter-screen for Shn3 inhibitor project, dose response (AID 624133); assay type: functional
[5] = molecular target: T1, Cytochrome P450 1A2 (Homo sapiens, UniProt P05177);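 further: PubChem cytochrome P450 panel assay, CYP1A2 panel member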
T1 sequence (P05177 whole entry): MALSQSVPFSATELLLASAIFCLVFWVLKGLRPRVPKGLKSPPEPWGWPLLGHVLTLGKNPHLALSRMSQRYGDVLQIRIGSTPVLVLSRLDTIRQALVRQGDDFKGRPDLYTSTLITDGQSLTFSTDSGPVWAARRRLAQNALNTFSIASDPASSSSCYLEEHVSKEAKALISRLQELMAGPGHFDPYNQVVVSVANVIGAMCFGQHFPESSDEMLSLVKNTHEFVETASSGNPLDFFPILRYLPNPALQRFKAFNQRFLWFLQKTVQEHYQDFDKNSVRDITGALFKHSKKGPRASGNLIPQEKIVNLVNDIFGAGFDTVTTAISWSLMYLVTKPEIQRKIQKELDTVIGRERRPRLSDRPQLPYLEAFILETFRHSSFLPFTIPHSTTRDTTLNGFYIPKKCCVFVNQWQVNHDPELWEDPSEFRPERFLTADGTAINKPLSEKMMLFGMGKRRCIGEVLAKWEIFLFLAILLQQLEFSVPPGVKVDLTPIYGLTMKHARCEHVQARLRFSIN

[6] = molecular target: T2, Cytochrome P450 2C9 (Homo sapiens, UniProt P11712)
[7] = molecular target: Cytochrome P450 2C19 (Homo sapiens, UniProt P33261); test: Cytochrome panel assay with activity outcomes. Panel member name: p450-cyp2c19 Compounds with AC50 equal or less than 10 uM are considered active; assay type: functional; settings: read-out: AC50
[8] = molecular target: Cytochrome P450 3A4 (Homo sapiens, UniProt P08684);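 further: CYP3A4 tested as one member of a cytochrome P450 panel screen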
[9] = molecular target: T2, Cytochrome P450 2C9; remark: listed apart in the source
[10] = NIH-3T3 fibroblast cytotoxicity, dose response, cytotoxicity control, cell-based, fluorescence, Alamar Blue, secondary assay (AID 2327); assay type: functional;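 further: NIH-3T3 mouse fibroblasts cultured with fluconazole at 8 µg/mL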
[11] = fluconazole-exposed Candida albicans growth modulators – fluorescence, retest, confirmation (AID 2467); assay type: functional, cell-based
[12] = test system: Streptococcus sp. 'group A'; test: Streptococcus pyogenes SK(-)GAS viability under kanamycin – luminescence, BacTiterGlo, confirmation, counter-screen for streptokinase expression inhibitor project, dose response (AID 1900); assay type: functional, organism-based
[13] = molecular target: T3, Streptokinase A (Streptococcus pyogenes serotype M1, UniProt P10520); test: viability-normalized secreted streptokinase activity reduction – plasminogen activation absorbance, OD405, dose response (AID 1914); assay type: functional, Streptococcus pyogenes M1 GAS;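 further: secreted streptokinase activity via plasminogen activation per viability signal from cell pellet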
T3 sequence (P10520 whole entry): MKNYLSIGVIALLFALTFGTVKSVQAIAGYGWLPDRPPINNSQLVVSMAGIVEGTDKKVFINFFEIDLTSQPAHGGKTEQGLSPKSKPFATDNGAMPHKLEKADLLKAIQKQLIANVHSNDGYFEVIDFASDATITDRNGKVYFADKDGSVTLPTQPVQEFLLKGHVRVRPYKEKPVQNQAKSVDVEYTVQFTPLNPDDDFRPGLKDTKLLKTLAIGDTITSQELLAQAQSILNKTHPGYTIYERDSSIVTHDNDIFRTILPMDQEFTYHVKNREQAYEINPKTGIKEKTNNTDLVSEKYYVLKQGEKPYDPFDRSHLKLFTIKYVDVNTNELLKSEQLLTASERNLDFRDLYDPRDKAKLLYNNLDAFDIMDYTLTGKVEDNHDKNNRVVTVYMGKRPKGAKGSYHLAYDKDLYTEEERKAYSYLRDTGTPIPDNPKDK

[14] = test system: Streptococcus; test: GAS UMAA2166 growth inhibition – luminescence, BacTiterGlo, counter-screen for streptokinase expression inhibitor project, dose response (AID 1915); assay type: functional, organism-based;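 further: potency for reduction of bacterial viability or growth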
[15] = molecular target: Cytochrome P450 2D6 (Homo sapiens, UniProt P10635);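 further: CYP2D6 member of a cytochrome P450 panel assay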
[16] = molecular target: Peroxisome proliferator-activated receptor gamma/Nuclear receptor coactivator 1 (Homo sapiens, UniProt P37231); test: (§1) TR-FRET dose response biochemical High Throughput Screening assay for agonists of the steroid receptor coactivator 1 (SRC-1) recruitment by the peroxisome proliferator-activated receptor gamma (PPAR gamma): non-selective agonists. [Related pubchem assays (depositor defined):AID1300, AID1808, AID504735, AID631]; assay type: protein assay
[17] = molecular target: Peroxisome proliferator-activated receptor gamma/Nuclear receptor coactivator 3 (Homo sapiens, UniProt P37231); test: as §1, with “3 (SRC-3)” for “1 (SRC-1)”, “assays: 1301 (Confirmation screen.), 1048 (Primary screen.)]” for “assays (depositor defined):AID1300, AID1808, AID504735, AID631]”; assay type: functional
[18] = molecular target: Peroxisome proliferator-activated receptor gamma/Nuclear receptor coactivator 2 (Homo sapiens, UniProt P37231); test: TR-FRET dose response biochemical High Throughput Screening assay for agonists of the steroid receptor coactivator 2 (SRC-2) recruitment by the peroxisome proliferator-activated receptor gamma (PPAR gamma): non-selective agonists. [Related pubchem assays: 1297, 1032 ]; assay type: functional
[19] = molecular target: T4, Caspase-3 (Homo sapiens, UniProt P42574); assay type: functional;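 further: Dose-response selectivity test against caspase-3 for candidate inhibitors of sentrin-specific proteases (SENPs)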
T4 sequence (P42574 whole entry): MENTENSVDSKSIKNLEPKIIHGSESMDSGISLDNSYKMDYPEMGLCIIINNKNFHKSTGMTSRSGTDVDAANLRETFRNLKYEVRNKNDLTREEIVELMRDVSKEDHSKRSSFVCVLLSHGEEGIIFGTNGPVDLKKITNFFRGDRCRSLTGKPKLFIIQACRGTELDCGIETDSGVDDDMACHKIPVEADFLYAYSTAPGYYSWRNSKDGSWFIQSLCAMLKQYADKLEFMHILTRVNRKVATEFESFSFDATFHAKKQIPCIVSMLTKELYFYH

[20] = molecular target: T5, Sentrin-specific protease 7 (Homo sapiens, UniProt Q9BQF6); assay type: functional;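 further: Luminescence-based dose-response confirmation of ultra-high-throughput screening hits, measuring inhibition of SENP7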
T5 sequence (Q9BQF6 whole entry): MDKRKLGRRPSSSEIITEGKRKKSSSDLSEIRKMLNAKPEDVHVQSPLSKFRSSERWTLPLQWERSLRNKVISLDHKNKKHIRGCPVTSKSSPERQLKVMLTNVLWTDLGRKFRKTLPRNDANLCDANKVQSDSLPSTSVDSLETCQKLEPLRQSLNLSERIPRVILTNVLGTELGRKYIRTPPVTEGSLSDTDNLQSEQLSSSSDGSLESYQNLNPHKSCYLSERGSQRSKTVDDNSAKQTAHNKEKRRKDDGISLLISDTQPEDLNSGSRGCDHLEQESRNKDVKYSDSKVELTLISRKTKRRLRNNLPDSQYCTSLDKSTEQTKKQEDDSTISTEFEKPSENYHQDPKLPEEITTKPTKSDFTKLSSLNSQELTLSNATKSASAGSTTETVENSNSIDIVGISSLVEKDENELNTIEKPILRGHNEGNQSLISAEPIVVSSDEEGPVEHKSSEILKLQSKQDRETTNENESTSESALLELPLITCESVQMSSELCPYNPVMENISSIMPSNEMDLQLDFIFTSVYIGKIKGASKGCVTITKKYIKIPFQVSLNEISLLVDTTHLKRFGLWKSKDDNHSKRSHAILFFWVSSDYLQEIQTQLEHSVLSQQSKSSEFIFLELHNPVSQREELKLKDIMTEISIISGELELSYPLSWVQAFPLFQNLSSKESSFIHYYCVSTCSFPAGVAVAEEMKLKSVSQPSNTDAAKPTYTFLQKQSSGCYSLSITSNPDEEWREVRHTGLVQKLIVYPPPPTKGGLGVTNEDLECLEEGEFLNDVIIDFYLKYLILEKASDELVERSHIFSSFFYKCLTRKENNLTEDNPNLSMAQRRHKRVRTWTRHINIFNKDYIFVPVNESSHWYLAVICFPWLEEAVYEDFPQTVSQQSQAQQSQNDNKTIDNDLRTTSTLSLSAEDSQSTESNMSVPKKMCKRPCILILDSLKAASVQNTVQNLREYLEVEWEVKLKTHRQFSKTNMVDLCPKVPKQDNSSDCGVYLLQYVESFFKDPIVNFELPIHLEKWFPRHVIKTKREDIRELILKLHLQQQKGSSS

[21] = molecular target: T6, Sentrin-specific protease 6 (Homo sapiens, UniProt Q9GZR1); assay type: functional;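 further: Luminescence-based dose-response confirmatory assay of SENP6 inhibition, following up an ultra-high-throughput screen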
T6 sequence (Q9GZR1 whole entry): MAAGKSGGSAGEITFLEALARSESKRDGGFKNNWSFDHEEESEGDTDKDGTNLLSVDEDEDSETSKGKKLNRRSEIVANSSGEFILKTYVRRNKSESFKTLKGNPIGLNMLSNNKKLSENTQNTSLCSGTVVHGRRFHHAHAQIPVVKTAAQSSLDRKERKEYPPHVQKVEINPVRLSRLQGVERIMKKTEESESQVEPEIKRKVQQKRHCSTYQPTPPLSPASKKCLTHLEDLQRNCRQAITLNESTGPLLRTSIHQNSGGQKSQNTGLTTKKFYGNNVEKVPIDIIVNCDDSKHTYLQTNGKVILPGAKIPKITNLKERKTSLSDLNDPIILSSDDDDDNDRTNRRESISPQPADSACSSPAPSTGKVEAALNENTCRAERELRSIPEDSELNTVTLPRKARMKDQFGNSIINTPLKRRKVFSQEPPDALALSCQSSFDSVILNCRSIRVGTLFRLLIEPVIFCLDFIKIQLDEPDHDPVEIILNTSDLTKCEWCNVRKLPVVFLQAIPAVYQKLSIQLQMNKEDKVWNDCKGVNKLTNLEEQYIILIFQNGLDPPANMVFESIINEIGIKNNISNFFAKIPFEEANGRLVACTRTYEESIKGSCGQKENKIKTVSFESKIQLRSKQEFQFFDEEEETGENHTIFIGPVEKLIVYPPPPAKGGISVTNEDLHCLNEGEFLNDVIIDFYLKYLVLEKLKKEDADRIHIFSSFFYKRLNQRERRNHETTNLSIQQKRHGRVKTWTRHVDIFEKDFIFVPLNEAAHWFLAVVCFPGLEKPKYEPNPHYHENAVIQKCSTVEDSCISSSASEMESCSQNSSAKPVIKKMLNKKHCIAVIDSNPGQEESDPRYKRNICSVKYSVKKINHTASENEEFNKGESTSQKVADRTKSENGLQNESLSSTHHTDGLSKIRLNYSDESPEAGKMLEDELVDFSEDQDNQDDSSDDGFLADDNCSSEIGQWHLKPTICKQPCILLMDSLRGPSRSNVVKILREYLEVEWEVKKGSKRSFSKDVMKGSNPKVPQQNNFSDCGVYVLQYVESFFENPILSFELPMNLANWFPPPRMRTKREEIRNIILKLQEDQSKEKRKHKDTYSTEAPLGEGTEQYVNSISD

[22] = molecular target: T7, Sentrin-specific protease 8 (Homo sapiens, UniProt Q96LD8); assay type: functional;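 further: luminescence read-out of SENP8 inhibition, dose-response confirmation following an ultra-high-throughput screen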
T7 sequence (Q96LD8 whole entry): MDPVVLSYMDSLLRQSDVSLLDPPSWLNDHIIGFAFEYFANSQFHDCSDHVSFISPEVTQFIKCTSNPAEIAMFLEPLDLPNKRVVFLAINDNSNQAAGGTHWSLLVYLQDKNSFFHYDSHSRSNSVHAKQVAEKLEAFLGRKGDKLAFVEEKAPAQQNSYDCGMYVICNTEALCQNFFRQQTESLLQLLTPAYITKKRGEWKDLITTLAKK

T2 sequence (P11712 whole entry): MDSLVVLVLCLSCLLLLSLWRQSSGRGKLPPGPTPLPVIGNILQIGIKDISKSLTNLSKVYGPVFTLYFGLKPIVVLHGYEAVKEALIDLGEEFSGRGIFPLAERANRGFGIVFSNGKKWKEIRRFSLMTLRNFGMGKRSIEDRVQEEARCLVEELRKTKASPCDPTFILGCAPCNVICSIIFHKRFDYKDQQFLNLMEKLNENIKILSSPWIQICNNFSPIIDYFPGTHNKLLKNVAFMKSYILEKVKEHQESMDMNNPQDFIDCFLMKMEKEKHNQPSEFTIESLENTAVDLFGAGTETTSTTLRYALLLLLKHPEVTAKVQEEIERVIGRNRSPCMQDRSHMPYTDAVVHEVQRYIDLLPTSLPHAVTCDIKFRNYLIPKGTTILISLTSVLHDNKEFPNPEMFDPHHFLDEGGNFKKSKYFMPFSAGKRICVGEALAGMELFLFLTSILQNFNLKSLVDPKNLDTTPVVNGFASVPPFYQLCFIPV
Cytochrome P450 3A4, sequence (P08684 whole entry): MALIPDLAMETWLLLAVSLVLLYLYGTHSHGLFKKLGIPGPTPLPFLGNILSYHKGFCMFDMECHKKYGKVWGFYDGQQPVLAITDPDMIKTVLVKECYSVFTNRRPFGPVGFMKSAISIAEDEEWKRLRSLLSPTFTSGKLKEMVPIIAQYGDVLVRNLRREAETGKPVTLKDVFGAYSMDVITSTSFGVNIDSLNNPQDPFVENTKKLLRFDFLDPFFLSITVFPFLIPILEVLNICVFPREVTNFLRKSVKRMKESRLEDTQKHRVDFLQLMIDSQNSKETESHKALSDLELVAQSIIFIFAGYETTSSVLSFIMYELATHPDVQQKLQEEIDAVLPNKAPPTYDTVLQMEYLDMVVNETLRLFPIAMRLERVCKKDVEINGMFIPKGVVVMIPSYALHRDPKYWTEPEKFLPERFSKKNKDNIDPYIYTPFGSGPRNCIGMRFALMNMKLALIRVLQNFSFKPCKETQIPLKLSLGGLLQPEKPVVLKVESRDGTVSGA
Cytochrome P450 2C19, sequence (P33261 whole entry): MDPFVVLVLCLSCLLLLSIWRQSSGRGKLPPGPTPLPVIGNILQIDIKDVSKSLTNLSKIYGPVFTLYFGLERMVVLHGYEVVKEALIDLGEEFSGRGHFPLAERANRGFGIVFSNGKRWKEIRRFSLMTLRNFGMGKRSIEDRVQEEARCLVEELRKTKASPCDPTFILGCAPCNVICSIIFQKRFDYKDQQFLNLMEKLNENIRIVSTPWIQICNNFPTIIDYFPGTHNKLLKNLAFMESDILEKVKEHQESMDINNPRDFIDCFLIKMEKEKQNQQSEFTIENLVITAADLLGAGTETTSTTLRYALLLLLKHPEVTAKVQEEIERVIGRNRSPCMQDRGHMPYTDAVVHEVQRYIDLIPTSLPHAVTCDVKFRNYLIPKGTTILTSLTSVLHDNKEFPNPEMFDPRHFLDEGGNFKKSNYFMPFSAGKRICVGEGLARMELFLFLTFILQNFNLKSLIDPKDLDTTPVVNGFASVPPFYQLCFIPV
Peroxisome proliferator-activated receptor gamma/Nuclear receptor coactivator 1, sequence (P37231 whole entry): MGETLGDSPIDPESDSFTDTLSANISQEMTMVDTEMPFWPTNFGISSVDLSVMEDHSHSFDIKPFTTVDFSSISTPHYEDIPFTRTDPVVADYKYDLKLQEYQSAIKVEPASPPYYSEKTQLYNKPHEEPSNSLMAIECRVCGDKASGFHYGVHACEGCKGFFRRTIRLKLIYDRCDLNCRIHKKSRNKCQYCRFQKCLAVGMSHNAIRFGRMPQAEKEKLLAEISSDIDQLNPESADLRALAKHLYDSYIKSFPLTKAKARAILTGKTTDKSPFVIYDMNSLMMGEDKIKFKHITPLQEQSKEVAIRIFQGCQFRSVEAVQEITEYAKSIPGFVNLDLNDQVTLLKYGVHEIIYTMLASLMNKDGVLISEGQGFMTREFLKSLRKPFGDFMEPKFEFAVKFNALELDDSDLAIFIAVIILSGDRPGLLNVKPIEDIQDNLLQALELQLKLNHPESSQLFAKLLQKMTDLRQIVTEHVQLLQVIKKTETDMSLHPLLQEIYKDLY
Peroxisome proliferator-activated receptor gamma/Nuclear receptor coactivator 1, sequence (Q15788 whole entry, further chain): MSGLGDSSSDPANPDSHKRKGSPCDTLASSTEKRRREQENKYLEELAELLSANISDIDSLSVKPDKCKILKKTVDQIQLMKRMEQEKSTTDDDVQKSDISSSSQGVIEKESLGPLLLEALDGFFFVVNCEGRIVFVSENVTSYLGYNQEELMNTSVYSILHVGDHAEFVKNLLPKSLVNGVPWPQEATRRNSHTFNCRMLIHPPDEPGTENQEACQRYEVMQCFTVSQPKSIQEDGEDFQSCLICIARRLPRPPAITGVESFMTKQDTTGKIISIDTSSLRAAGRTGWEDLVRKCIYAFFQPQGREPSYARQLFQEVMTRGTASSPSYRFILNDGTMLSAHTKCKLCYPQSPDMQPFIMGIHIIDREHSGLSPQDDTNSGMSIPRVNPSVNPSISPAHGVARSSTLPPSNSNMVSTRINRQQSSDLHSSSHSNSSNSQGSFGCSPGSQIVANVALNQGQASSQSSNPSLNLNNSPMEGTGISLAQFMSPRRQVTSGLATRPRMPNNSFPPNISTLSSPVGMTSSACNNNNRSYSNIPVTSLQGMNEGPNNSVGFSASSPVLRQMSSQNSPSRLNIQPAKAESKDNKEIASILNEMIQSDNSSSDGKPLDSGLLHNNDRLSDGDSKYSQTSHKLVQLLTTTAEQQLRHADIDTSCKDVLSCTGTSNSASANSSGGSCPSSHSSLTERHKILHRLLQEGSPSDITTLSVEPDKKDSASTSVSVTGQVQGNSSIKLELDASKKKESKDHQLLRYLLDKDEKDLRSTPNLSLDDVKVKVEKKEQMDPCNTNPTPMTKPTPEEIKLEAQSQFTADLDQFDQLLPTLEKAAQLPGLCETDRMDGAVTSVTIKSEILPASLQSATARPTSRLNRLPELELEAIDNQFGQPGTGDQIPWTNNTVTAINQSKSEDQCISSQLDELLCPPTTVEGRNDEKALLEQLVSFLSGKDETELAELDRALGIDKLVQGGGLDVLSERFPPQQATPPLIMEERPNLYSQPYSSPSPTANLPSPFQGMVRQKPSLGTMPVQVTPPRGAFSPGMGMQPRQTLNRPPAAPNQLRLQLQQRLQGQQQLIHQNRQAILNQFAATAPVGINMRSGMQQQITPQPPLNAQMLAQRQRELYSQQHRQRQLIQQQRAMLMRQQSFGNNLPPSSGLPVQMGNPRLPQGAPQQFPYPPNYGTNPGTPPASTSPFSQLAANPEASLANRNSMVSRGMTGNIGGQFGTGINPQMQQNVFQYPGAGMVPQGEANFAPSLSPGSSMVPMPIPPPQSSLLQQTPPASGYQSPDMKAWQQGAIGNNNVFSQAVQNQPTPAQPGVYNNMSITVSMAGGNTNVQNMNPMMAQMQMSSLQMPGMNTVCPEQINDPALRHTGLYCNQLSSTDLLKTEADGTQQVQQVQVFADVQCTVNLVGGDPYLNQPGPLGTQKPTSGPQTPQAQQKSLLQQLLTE
Cytochrome P450 2D6, sequence (P10635 whole entry): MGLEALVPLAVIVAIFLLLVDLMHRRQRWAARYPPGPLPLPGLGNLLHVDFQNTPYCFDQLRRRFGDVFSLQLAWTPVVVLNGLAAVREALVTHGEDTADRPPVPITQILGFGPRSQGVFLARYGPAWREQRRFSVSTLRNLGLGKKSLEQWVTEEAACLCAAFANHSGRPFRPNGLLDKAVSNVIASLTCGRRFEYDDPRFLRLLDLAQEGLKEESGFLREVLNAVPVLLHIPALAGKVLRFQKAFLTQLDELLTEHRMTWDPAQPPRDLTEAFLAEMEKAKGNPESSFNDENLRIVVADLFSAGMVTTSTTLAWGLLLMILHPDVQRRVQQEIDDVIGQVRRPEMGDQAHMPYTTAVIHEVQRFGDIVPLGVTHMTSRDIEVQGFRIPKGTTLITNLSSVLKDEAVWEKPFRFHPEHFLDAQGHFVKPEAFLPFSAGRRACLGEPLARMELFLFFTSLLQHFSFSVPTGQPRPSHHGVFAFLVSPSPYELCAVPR

CCCCC(=O)NC(c1ccc(OC)c(OC)c1)c1ccc2cccnc2c1O (centres undefined)
AC50 [1]: 7.93 µM (active) | AC50 [2]: 1.36 µM (active) | AC50 [3]: 60.1 µM (active) | AC50 [4]: 1.4 µM (active)

O=C(NCc1ccc(Cl)cc1)c1ccc(Cl)cc1[N+](=O)[O-]
AC50 [5]: 2.82 µM (inconclusive) | AC50 [6]: inconclusive

N=C(NOC(=O)c1cccc(Br)c1)c1ccccn1
AC50 [1]: 21.8 µM (active)

O=c1c(-c2ccccc2)nc2cnc(Oc3ccccc3)nc2n1C1CC1
AC50 [7]: 25.1 µM (inconclusive) | AC50 [8]: inconclusive

CCN(CCCNC(=O)CC(C(=O)N1CCc2ccccc21)n1ccnc1)c1ccccc1 (centres undefined)
AC50 [6]: inconclusive

O=C(c1cccc(F)c1)N1CCC2(CC1)CCN(C(c1ccccc1)c1ccccc1)CC2
AC50 [5]: 10 µM (inconclusive) | AC50 [9]: 39.8 µM (inconclusive) | AC50 [8]: inconclusive

COc1ccc(N2CCN(CCNC(=O)C3CCN(S(=O)(=O)c4cccs4)CC3)CC2)cc1
AC50 [7]: 28.2 µM (inconclusive) | AC50 [9]: 20 µM (inconclusive) | AC50 [8]: inconclusive

Cn1c(=O)n(CC#N)c2ccccc21
EC50 [10]: > 160 µM (inconclusive) | EC50 [11]: 4.1 µM (active) | AC50 [5]: 12.6 µM (inconclusive) | AC50 [6]: inconclusive

Cc1nn(-c2ccccc2)c(C)c1/C=N/NC(=O)c1cc(-c2ccc(Cl)s2)[nH]n1
EC50 [12]: 10.8 µM (active) | EC50 [13]: > 150 µM (not active) | EC50 [14]: 9.32 µM (active) | AC50 [15]: 25.1 µM (inconclusive) | AC50 [8]: inconclusive

CN(CCCNC(=O)CSc1cc(=O)n(C)c2cc(Cl)ccc12)Cc1ccccc1
EC50 [16]: > 79.4 µM (inactive) | EC50 [17]: > 79.4 µM (not active) | EC50 [18]: > 79.4 µM (not active)

O=C(O)c1ccc(-c2ccc(OS(=O)(=O)c3ccccc3F)cc2)cc1
IC50 [19]: > 100 µM (inactive) | IC50 [20]: 6.6 µM (active) | IC50 [21]: 35 µM (active) | IC50 [22]: 56.4 µM (active)

Cc1c(C(=O)O)cccc1-c1ccc(/C=C2/NC(=O)N(c3ccccc3)C2=O)o1
IC50 [19]: > 100 µM (inactive) | IC50 [20]: 21.2 µM (active) | IC50 [21]: 28.6 µM (active) | IC50 [22]: 45 µM (active)

CCCCN(CC)C(=O)CSc1cc(=O)n(C)c2ccccc12
EC50 [16]: > 79.4 µM (inactive) | EC50 [17]: > 79.4 µM (not active) | EC50 [18]: > 79.4 µM (not active)
